Publication PMC6267684, “Pharmacokinetic evaluation of the PNC disassembler metarrestin in wild-type and Pdx1-Cre;LSL-Kras^G12D/+;Tp53^R172H/+ (KPC) mice, a genetically engineered model of pancreatic cancer” (Cancer Chemotherapy and Pharmacology, 2018)
Like-named read-outs stand apart in the source and are kept apart here.

Legend:
PNC in PC3M cells = assay: PNC disassembly assay in PC3M cells; type: cell-based; settings: PC3M (PTB-GFP) cells
Description: The PNC disassembly assay has been previously described. […] Cells were fixed with […] for 10 min at room temperature. […] Confocal images were obtained using Opera Phoenix (PerkinElmer, Waltham, MA) and a 20× objective lens.
To examine whether measured intratumor metarrestin concentrations measured in PK studies track with intracellular metarrestin concentration, we first decided to synthesize a fluorophore conjugated analog of metarrestin. Structure activity relationship studies around the structure of metarrestin were conducted in a high throughput assay that measured in dose dependence the ability of compounds to reducing PNC prevalence in PC3M cells. […] This analog was chemically conjugated to the fluorophore boron-dipyrromethene (BODIPY®) to track the disassembly of the PNC in PC3M cancer cells by confocal microscopy (Suppl. Figure 2). […] Next, to examine cellular metarrestin levels in relation to extracellular concentrations, we exposed KPC and PC3M cells at 1 and 10 µM concentrations of metarrestin and harvested cells at different timepoints.

[1] = Freeze-thaw stability in mouse plasma; type: in vitro ADME; settings: after three freeze-thaw cycles
Description: Bioanalytical method validation was performed in mouse plasma and mouse liver. The linear calibration range for metarrestin was 1.0–1000 ng/mL for plasma and 5.0–20,000 ng/g for liver homogenate. The lower limit of quantitation of the assay was 1.0 ng/mL in plasma and 5.0 ng/g in liver homogenate. The accuracy of calibration standards was between within 8% of the nominal values. Intra-assay variance and deviation from nominal values were calculated at low quality-control (LOQ, 1.0 ng/mL plasma and 5.0 ng/g liver), middle quality-control (MQC, 10.0 ng/mL and 500 ng/g), and high quality-control (HQC, 1000 ng/mL and 20,000 ng/g) levels for six replicates, each of the same analytical run (Suppl. Tables 1, 2). The variance of the QC samples (CV%, […]) ranged from 1.0 to 5.1% and the deviation was between 3 and 6% from nominal values. No endogenous interference was found at the retention time for metarrestin and internal standard as verified by testing control blank plasma and liver homogenate. Metarrestin was stable in mouse plasma after three freeze-thaw cycles.

[2] = Steady-state PK in KPC mice fed metarrestin-infused chow; type: in vivo; settings: for Kp / AUC0-24hr Ratio (Tissue/Plasma): 10 mg/kg/day; for Kp / Cmax / Tmax / AUC0-24hr Ratio (Tissue/Plasma): day 10, chow; for Kp: read-out: AUC0-24hr Ratio (Tissue/Plasma); for concentration at 0 h / concentration at 3 h / concentration at 6 h / concentration at 9 h / concentration at 12 h / concentration at 15 h / concentration at 24 h: day 10, 10 mg/kg/day (70 ppm) chow; for Cmax / Tmax: po
[3] = Preliminary toxicity profile, 25 mg/kg PO gavage for 14 days; settings: for ALP (alkaline phosphatase) / ALT (alanine transaminase) / AST (aspartate transaminase): in U/L (unit assumed); for Weight: in g (unit assumed)
[4] = KPC, mouse, plasma, oral, read-out: Plasma concentration
[5] = KPC, mouse, liver, target dose 10 mg/kg/day
[6] = KPC, mouse, plasma, target dose 10 mg/kg/day
[7] = KPC, mouse, spleen, target dose 10 mg/kg/day
[8] = KPC, mouse, tumor, target dose 10 mg/kg/day
[9] = KPC, mouse, tumor, oral, read-out: Tumor concentration
[10] = females, 25 mg/kg, 14 days, in g/dL (unit assumed)
[11] = females, N=10, 25 mg/kg, number of animals
[12] = males, N=10, 25 mg/kg, number of animals

N=c1c2c(-c3ccccc3)c(-c3ccccc3)n(Cc3ccccc3)c2ncn1[C@H]1CC[C@H](O)CC1 [metarrestin, Trans-4-(7-benzyl-4-imino-5,6-diphenyl-4,7-dihydro-3H-pyrrolo[2,3-d]pyrimidin-3-yl) cyclohexanol]
IC50 (PNC in PC3M cells; Homo sapiens, PC-3M): 400 nM
IC50 (PNC in PC3M cells): 397 nM
stability in mouse plasma [1]: stable
intratumor AUC0–24h ([2]; 10 mg/kg PO chow): 80,600 h ng/mL
intratumor AUC0–24h ([2]; 10 mg/kg PO steady-state chow): 96,100 h ng/mL
intratumor AUC levels ([2]; 10 mg/kg dosing with solid or liquid formulations): > 80,000 ng h/mL
Kp ([2]; KPC, mouse, liver, oral, liver/plasma, target dose 10 mg/kg/day): > 20
AUC(0-t) ([2]; KPC, mouse, oral, plasma, day 10, chow 70 ppm, target dose 10 mg/kg/day, read-out: AUC0-24hr): 4160 ng·h/mL
Kp ([2]; KPC, mouse, pancreatic tumor, oral, tumor/plasma, target dose 10 mg/kg/day): > 20
concentration at 0 h [2, 4]: 0.46 µM
concentration at 3 h [2, 4]: 0.33 µM
concentration at 6 h [2, 4]: 0.3 µM
concentration at 9 h [2, 4]: 0.5 µM
concentration at 12 h [2, 4]: 0.43 µM
concentration at 15 h [2, 4]: 0.36 µM
concentration at 24 h [2, 4]: 0.27 µM
Cmax [2, 5]: 7250 ng/mL
Tmax [2, 5]: 12 h
Cmax [2, 6]: 237 ng/mL
Tmax [2, 6]: 9 h
Cmax [2, 7]: 5840 ng/mL
Tmax [2, 7]: 15 h
Cmax [2, 8]: 5100 ng/mL
Tmax [2, 8]: 9 h
Kp ([2]; KPC, mouse, spleen, oral, spleen/plasma, target dose 10 mg/kg/day): > 20
concentration at 0 h [2, 9]: 7.9 µM
concentration at 3 h [2, 9]: 10.3 µM
concentration at 6 h [2, 9]: 8 µM
concentration at 9 h [2, 9]: 10.8 µM
concentration at 12 h [2, 9]: 10.7 µM
concentration at 15 h [2, 9]: 7.2 µM
concentration at 24 h [2, 9]: 6.7 µM
AUC0-24hr Ratio (Tissue/Plasma) ([2]; liver/plasma, target dose 10 mg/kg/day): 37
AUC0-24hr ([2]; liver, day 10, chow 70 ppm, target dose 10 mg/kg/day): 153000 ng●hr/mL
AUC0-24hr Ratio (Tissue/Plasma) ([2]; spleen/plasma, target dose 10 mg/kg/day): 26
AUC0-24hr ([2]; spleen, day 10, chow 70 ppm, target dose 10 mg/kg/day): 109000 ng●hr/mL
AUC0-24hr Ratio (Tissue/Plasma) ([2]; tumor/plasma, target dose 10 mg/kg/day): 23
AUC0-24hr ([2]; tumor, day 10, chow 70 ppm, target dose 10 mg/kg/day): 96100 ng●hr/mL
body weight, hypoactivity, liver function tests compared to vehicle controls ([3]; daily 25 mg/kg by oral gavage for 14 days): not associated with any change in body weight, hypoactivity, or change in liver function tests
CHOL (cholesterol) ([3]; females, 25 mg/kg, 14 days): 123 ± 18.4
LD (lactate dehydrogenase) ([3]; females, 25 mg/kg, 14 days): 495 ± 89.7
ALP (alkaline phosphatase) ([3]; females, 25 mg/kg, 14 days): 136 ± 13.8
ALT (alanine transaminase) ([3]; females, 25 mg/kg, 14 days): 100 ± 47.6
AST (aspartate transaminase) ([3]; females, 25 mg/kg, 14 days): 100 ± 28.3
GLOB (globulin) [3, 10]: 2.1 ± 0.13
TP (total protein) [3, 10]: 5.2 ± 0.21
Weight ([3]; females, Day 1, 25 mg/kg): 23.1 ± 1.55
Weight Change ([3]; females, Day 1 to 4, 25 mg/kg): 0.0 ± 0.80
Weight Change ([3]; females, Day 1 to 15, 25 mg/kg): 2.7 ± 1.04
Weight Change ([3]; females, Day 4 to 7, 25 mg/kg): 1.2 ±0.67
Weight ([3]; females, Day 7, 25 mg/kg): 24.3 ± 1.32
Weight ([3]; females, Day 15, 25 mg/kg): 25.8 ± 1.70
Death [3, 11]: 0
Rough coat [3, 11]: 0
Scant feces [3, 11]: 0
CRE (creatinine) ([3]; males, 25 mg/kg, 14 days): 0.09 ± 0.015
P04 (phosphorus) ([3]; males, 25 mg/kg, 14 days): 10.2 ± 0.50
ALP (alkaline phosphatase) ([3]; males, 25 mg/kg, 14 days): 84 ± 13.5
ALT (alanine transaminase) ([3]; males, 25 mg/kg, 14 days): 137 ± 67.4
AST (aspartate transaminase) ([3]; males, 25 mg/kg, 14 days): 88 ± 24.3
K (potassium) ([3]; males, 25 mg/kg, 14 days, in mmol/L (unit assumed)): 7.3 ± 0.21
Weight ([3]; males, Day 1, 25 mg/kg): 31.4 ± 1.38
Weight Change ([3]; males, Day 1 to 4, 25 mg/kg): 1.1 ± 0.90
Weight Change ([3]; males, Day 1 to 15, 25 mg/kg): 3.1 ± 1.51
Weight Change ([3]; males, Day 4 to 7, 25 mg/kg): 0.9 ± 0.59
Weight ([3]; males, Day 7, 25 mg/kg): 33.3 ± 2.02
Weight ([3]; males, Day 15, 25 mg/kg): 34.4 ± 2.33
Cold to touch [3, 12]: 0
Death [3, 12]: 0
Hypoactivity [3, 12]: 0
Rough coat [3, 12]: 6
Scant feces [3, 12]: 0
Thin [3, 12]: 0
